Some test systems named below: DLD-1 colon; DMS 114 small cell lung; DMS 273 small cell lung; HOP-18 NSCLC; KM20L2 colon; LXFL 529 NSCLC; RXF-631 renal; SNB-78 CNS; XF 498 CNS.
Holding throughout (assay): growth of human tumour cells (NCI), 48 h

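Growth conditions: 96-well plates. Treatment: test compound, 48 hours, 5 concentrations. Analysis: linear interpolation between bracketing concentrations; unreached endpoints set to highest concentration. The concentration for full growth arrest is given as TGI.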 Bounds are passed on as bounds.

`O=[N+]([O-])c1ccc2c(Nc3ccccc3-c3ccccc3Nc3c4ccccc4nc4cc([N+](=O)[O-])ccc34)c3ccccc3nc2c1`: the TGI with DLD-1 colon was more than 48.4 µM; in the test on DMS 114 small cell lung it was 27.3 µM; with DMS 273 small cell lung it was more than 82.9 µM; in the test with HOP-18 NSCLC, more than 100 µM; in the test on KM20L2 colon it was more than 65 µM; in the test with LXFL 529 NSCLC it was more than 35.1 µM. The TGI with RXF-631 renal was more than 82.9 µM; in the test on SNB-78 CNS, more than 100 µM; in the test on XF 498 CNS, 4.98 µM.

For the compound `C#CCSc1nc(N)c2ncn(C3OC(COP(=O)(O)O)C(O)C3O)c2n1` (stereo not drawn), the TGI in the test with DLD-1 colon, with DMS 273 small cell lung, in the test with HOP-18 NSCLC, in the test with KM20L2 colon, in the test on SNB-78 CNS and in the test with XF 498 CNS was more than 239 µM in each case.

As for `Nc1ccc(C(=O)NN2C(=O)C(Cl)C2c2cccc(O)c2)cc1` (stereo not drawn), the TGI with DLD-1 colon is 28.4 µM; in the test on DMS 114 small cell lung it was 19.9 µM; with DMS 273 small cell lung, 23.3 µM; in the test on KM20L2 colon, 31.8 µM; in the test on LXFL 529 NSCLC, 24.3 µM; in the test on SNB-78 CNS, 40.2 µM.

`COc1ccc(-c2onc(-c3c(C)cc(C)cc3C)c2C2=NCCN2)cc1`: the TGI in the test with DLD-1 colon, in the test on HOP-18 NSCLC, with KM20L2 colon, with LXFL 529 NSCLC, in the test on RXF-631 renal and in the test on SNB-78 CNS was more than 100 µM in each case.

As to `CC(=O)Nc1ccc(C(=O)NN2C(=O)C(Cl)C2c2ccc(O)cc2)cc1` (stereo not drawn), the TGI with DLD-1 colon, in the test on DMS 273 small cell lung, with KM20L2 colon, in the test with LXFL 529 NSCLC, with SNB-78 CNS and with XF 498 CNS was more than 100 µM each time.

For `CC1=NN(C(=O)c2ccc(Cl)cc2)C(=O)/C1=C/c1ccc(Cl)cc1`, the TGI in the test with DLD-1 colon, in the test on DMS 114 small cell lung, in the test on KM20L2 colon, in the test on LXFL 529 NSCLC, in the test on SNB-78 CNS and with XF 498 CNS was more than 100 µM throughout.

As to `CN1Cc2c(nc(-c3ccc(Br)cc3)c[n+]2[O-])N(C)C1`, the TGI with DLD-1 colon, in the test with DMS 114 small cell lung, with DMS 273 small cell lung, with HOP-18 NSCLC, in the test with KM20L2 colon and with LXFL 529 NSCLC was more than 100 µM each time. For the same compound, the TGI in the test on SNB-78 CNS and in the test on XF 498 CNS was more than 100 µM each time.

`C/C(=C\Cc1cc(O)ccc1O)CCc1c(C)c(O)c(O)c(C=O)c1C`: the TGI in the test with DLD-1 colon was 56.8 µM; in the test with DMS 114 small cell lung, 34 µM; in the test with DMS 273 small cell lung it was 74.6 µM; in the test on HOP-18 NSCLC, 59.9 µM; with KM20L2 colon, more than 100 µM; with LXFL 529 NSCLC, 32.4 µM. Moreover, the TGI with XF 498 CNS was 48.8 µM.

As for `O=C(COc1ccc(Cl)cc1)N1CCN(C(=O)COc2ccc(Cl)cc2)c2ccccc21`, the TGI in the test with DLD-1 colon, in the test on DMS 114 small cell lung, in the test with DMS 273 small cell lung, in the test on HOP-18 NSCLC, in the test with KM20L2 colon and in the test with LXFL 529 NSCLC was more than 100 µM throughout. Besides, the TGI in the test on SNB-78 CNS and in the test with XF 498 CNS was more than 100 µM throughout.

For the compound `CC(=O)Nc1ccc(C(=O)N2N=C(C)/C(=C/c3cccc([N+](=O)[O-])c3)C2=O)cc1`, the TGI in the test on DLD-1 colon, in the test with DMS 114 small cell lung, with DMS 273 small cell lung, in the test with HOP-18 NSCLC and with SNB-78 CNS was more than 100 µM in each case.

With `COC1=CC(=O)c2c(O)c3c(c(O)c2C1=O)C[C@](C)(O)C[C@@H]3O`, the TGI is 17.2 µM in the test on DLD-1 colon; 3.7 µM with DMS 114 small cell lung; 8.37 µM in the test on DMS 273 small cell lung; more than 100 µM with KM20L2 colon; 14.9 µM in the test on LXFL 529 NSCLC; 11.2 µM in the test with RXF-631 renal. For the same compound, the values for the TGI in the test on SNB-78 CNS and in the test on XF 498 CNS were 16.3 µM and 9.5 µM, respectively.

As for `Cc1occ2c1C(=O)CC1C2[C@@H](O)CC2C(C)(C)CCC[C@]12C` (stereo partly drawn), the TGI in the test with DLD-1 colon, in the test on DMS 114 small cell lung, in the test on HOP-18 NSCLC, with KM20L2 colon, with LXFL 529 NSCLC and with SNB-78 CNS was more than 100 µM in each case. Moreover, the TGI with XF 498 CNS is more than 100 µM.

For the compound `COC1(C)C(=O)N2C1N(C(=O)OCc1ccccc1)CC2(C)C` (stereo not drawn), the TGI in the test with DLD-1 colon, in the test with DMS 114 small cell lung, with DMS 273 small cell lung, in the test with KM20L2 colon, in the test with LXFL 529 NSCLC and with XF 498 CNS was more than 100 µM each time.

Source of the values: PubChem BioAssay (NCI).
